Here are results for four compounds from US20230115120A1, “COMPOSITIONS, METHODS AND USES OF COMBINATION TREATMENTS FOR BLOOD CANCERS” (University of New Brunswick, priority 2020, published 2023).

For one experiment, the system named is myeloma cell line JJN3. In words: Cell growth inhibition (PrestoBlue) in myeloma cell line JJN3. It counts as cell-based, Human. As to conditions: FIG. 3a. The method, then: Cell Culture. Human myeloma cell lines JJN3 were purchased from ATCC, KMM-1 was procured from the Japanese Collection of Research Bioresources Cell Bank (JCBR, Japan). The MM1.R cell line was a kind gift from Dr. Jonathan Keats, Translational Genomics Research Institute (TGen, USA). JJN3 cells were grown in RPMI-1640 medium (Sigma Aldrich, USA) supplemented with 5% heat inactivated FBS (Gibco), 1% I-glutamine (Gibco), 5 mM HEPES, and 1% Penstrep (Sigma Aldrich, USA); KMM-1 cells in RPMI-1640 media supplemented with 10% FBS, 1% L-glutamine (Gibco) and 1% Penstrep; MM1.R cells in advanced RPMI-1640 medium with 4% FBS and 1% Glutamax, in a humidified 5% CO2 incubator at 37° C. Cell lines were tested regularly for mycoplasma and kept free of contamination. Lenalidomide, terameprocol (Sigma Aldrich, USA) and pomalidomide from Selleck chemicals were used.
Cell Growth Inhibition Studies. A 48-h cell growth inhibition assay was conducted using the PrestoBlue cell viability kit (Invitrogen, ON, Canada). Cells were plated at 10,000 cells/well in 96-well tissue culture plates. The effect of single inhibitor and inhibitor combination treatments were done using appropriate vehicle and medium (blank) controls. Cells were incubated at 37° C. in a 5% CO2 incubator for 48 h or 72 h depending on the chosen duration of the study. At the end of the treatment, cell growth inhibition was determined by the PrestoBlue assay. […] Cell growth was assessed fluorometrically at 37° C. using the BioTek Synergy H4 Hybrid Multi-Mode microplate reader (535 nm excitation; 615 nm emission) with Gen 2.06 analyses software. Fluorescence values were corrected for any background fluorescence of the medium and test fractions by subtracting fluorescence readings of the appropriate blanks from the mean fluorescence readings of the untreated control and test wells. The percentage inhibition of cell growth was then defined as 1−(mean test well fluorescence/mean control well fluorescence)×100.

A further experiment deals with myeloma cell. In words: Myeloma cell growth inhibition, combination treatments (FIG. 4, FIG. 5). It counts as cell-based, Human. As for the experimental part: Cell Growth Inhibition Studies. A 48-h cell growth inhibition assay was conducted using the PrestoBlue cell viability kit (Invitrogen, ON, Canada). Cells were plated at 10,000 cells/well in 96-well tissue culture plates. The effect of single inhibitor and inhibitor combination treatments were done using appropriate vehicle and medium (blank) controls. Cells were incubated at 37° C. in a 5% CO2 incubator for 48 h or 72 h depending on the chosen duration of the study. At the end of the treatment, cell growth inhibition was determined by the PrestoBlue assay. In brief, 10% PrestoBlue reagent was added to untreated and treated cells in […] in each well and incubated at 37° C. for one and a half hours. Cell growth was assessed fluorometrically at 37° C. using the BioTek Synergy H4 Hybrid Multi-Mode microplate reader (535 nm excitation; 615 nm emission) with Gen 2.06 analyses software. Fluorescence values were corrected for any background fluorescence of the medium and test fractions by subtracting fluorescence readings of the appropriate blanks from the mean fluorescence readings of the untreated control and test wells. The percentage inhibition of cell growth was then defined as 1−(mean test well fluorescence/mean control well fluorescence)×100.

In experiment [1] the test system is HDAC1, Sp1, IRF4, IKZF1 and c-MYC protein in human myeloma cell lines JJN3 and MMIR. In words: Western blots of key protein targets in myeloma cell lines. It counts as cell-based. Particulars: 1, 5, 10 and 25 uM, in comparison with panobinostat, FIG. 2a, 2b. As for the experimental part:
Western/Immunoblotting Methods. Protein lysates were obtained from untreated and CAPE (2) analog-treated myeloma cells and the concentration of proteins was determined by the BCA method. Proteins were resolved in a 4-20% criterion gel followed by electrophoretic transfer to nitrocellulose membrane (Bio-Rad Laboratories Inc., Germany). Membranes were then blocked with 5% skimmed milk in tris-buffered saline-tween (TBS-T) for 1 h and then, after rapid TBS-T washes, incubated overnight at 4° C. with a primary antibody of interest. Goat polyclonal anti-IRF4, rabbit polyclonal anti-Ikaros (Santa Cruz Biotechnology, Santa Cruz, Calif.); mouse monoclonal anti-Caspase-8, rabbit anti-Caspase-3, cleaved Caspase-3, anti-Sp1 (Cell Signaling Technology, Whitby, ON), rabbit monoclonal anti-MYC and mouse monoclonal β-actin antibody (Abcam, Cambridge, Mass.) were the primary antibodies used for this study. Following this, the membrane was incubated with HRP conjugated secondary antibodies. Protein levels in immunoblots were detected with an Amersham™ ECL™ Prime western blotting detection kit (GE Healthcare, ON, Canada), the imaging was performed using the ChemiDoc™ MP imaging system (Bio-Rad Laboratories, USA) and densitometry analyses were done using the Image Lab 5.0 software.

Experiment [2] deals with IKZF1, IKZF3, IRF4, MYC and HDAC1 gene expression in human myeloma cells (KMM-1). In words: RNA Seq gene expression profiling in KMM-1 myeloma cells. Particulars: in comparison with untreated and lenalidomide (10 uM) treated conditions, FIG. 1. It counts as cell-based. The method, then: RNA from myeloma cells (treated and untreated) was isolated and checked for integrity using the Agilent Bioanalyzer 2100 system (Agilent Technologies, Santa Clara, Calif., USA) and quantified using a Qubit fluorometric assay (Thermo Fisher Scientific, USA). RNA Seq was carried out at the Genome Quebec, Montreal, Canada. […] The remaining steps of library preparation were done using the NEBNext Ultra II DNA Library Prep Kit for Illumina (New England BioLabs). Adapters and PCR primers were purchased from New England BioLabs. Libraries were quantified using the Quant-iT™ PicoGreen® dsDNA Assay Kit (Life Technologies) and the Kapa Illumina GA with Revised Primers-SYBR Fast Universal kit (Kapa Biosystems). Average size fragment was determined using a LabChip GX (PerkinElmer) instrument. All bioinformatics analyses were done by the Canadian Centre for Computational Genomics (C3G)-Montréal Node, Canada.

In the case of `Cc1[nH]c2ccccc2c1CCNCc1ccc(/C=C/C(=O)NO)cc1` [panobinostat, reference compound], the inhibition at 1 pM in the experiment with myeloma cell line JJN3 (Homo sapiens, JJN-3, panobinostat alone, 0.001 nM) came to 17 ± 3%.
In the case of `O=C(/C=C/c1cc(O)ccc1O)OCCCc1ccccc1` [As26], the “myeloma cell growth inhibition, combination versus single agents” value in the experiment with myeloma cell (Sp1 inhibitor Terameprocol (TMP) and As26 combination, FIG. 5) is “augmented myeloma cell growth inhibition”; in the experiment with myeloma cell (Trichostatin A and IC 50 As26 combination treatment, FIG. 4) it was “augmented myeloma cell growth inhibition”. Moreover, the “myeloma cell growth inhibition” value was 54.4% in the experiment with myeloma cell line JJN3 (combination 2.5 μM As26 with 0.001 nM panobinostat) and 69.8% in the experiment with myeloma cell line JJN3 (combination 5 μM As26 with 0.001 nM panobinostat).
In the case of `O=C(/C=C/c1ccc(O)c(O)c1)OCCc1ccccc1` [CAPE, caffeic acid phenethyl ester], the “protein levels of HDAC1, Sp1, IRF4, IKZF1 and c-MYC” value in experiment [1] is recorded as “lowered”. Also, in experiment [2] (50 uM), the “gene expression of IKZF1, IKZF3, IRF4, MYC and HDAC1” value was “downregulated”.
For `O=C(/C=C/c1ccc(O)c(O)c1)OCCCc1ccccc1` [GL8], the “gene expression of IKZF1, IKZF3, IRF4, MYC and HDAC1” value in experiment [2] (25 uM) and in experiment [2] (50 uM) was “downregulated” each time.

One may read the inhibition as the change of the read-out against control, counted positive when it falls.
